According to article PMC2812908 (Letters in drug design & discovery, 2009):

Target: Aβ(1–40) fibrils (Homo sapiens, UniProt P05067)
Assay: radioligand displacement of [3H]Chrysamine-G, filtration assay
Format: binding

Sequence of Aβ(1–40) fibrils (P05067 672-711): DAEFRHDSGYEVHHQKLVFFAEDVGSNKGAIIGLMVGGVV

| Ki [nM] | Compound |
| --- | --- |
| 21 | COc1cc(/C=C/c2ccc(/C=C/c3ccc(O)c(O)c3)cc2)ccc1O [X:034-3-OMe1, (E,E)-1-(3’,4’-dihydroxystyryl)-4-(3’-methoxy-4’hydroxystyryl)benzene] |
| 0.13 | O=C(O)c1cc(/C=C/C=C/c2ccc(/C=C/C=C/c3ccc(O)c(C(=O)O)c3)cc2)ccc1O [X:EE:B34, 1,4-bis[(1E,3E)-4-(3’-carboxy-4’-hydroxyphenyl)-1,3-butadienyl]-benzene] |
